From patent publication US10077261B2, “Imidazolin-5-one derivative useful as FASN inhibitors for the treatment of cancer” (Janssen Pharmaceutica NV, priority 2012, dated 2018) come the findings set out here.

Bounds are passed on as bounds.

Assay [1] addresses T1, hFASN enzyme (full length) (Homo sapiens, UniProt P49327).
T1 construct: 10 μL hFASN enzyme (full length, 300 ng, purified in house); made in house
In words: Fatty Acid Synthase (FASN) inhibition scintillation proximity assay. It counts as biochemical. The following applies: for inhibition at 10 µM: read-out: Human FASN % inhibition @ 10 μM, 10 μM test compound; for IC50: read-out: Human FASN pIC50 (converted). In a few lines: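 Purified full-length hFASN (300 ng) converts ^3H-acetyl-CoA plus malonyl-CoA to ^3H-palmitate in 100 mM KH2PO4 pH 7.5, 1 mM DTT; compounds tested at 0.01–30 μM. Product captured on streptavidin imaging beads and read by LEADseeker at 610 nm after ≥24 h; 4-parameter logistic fit versus controls.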

Assay [2] has as its system A2780 ovarian cells. In words: A2780 ovarian cell proliferation assay in lipid reduced medium, with palmitate (MTT). The following applies: Homo sapiens, A2780, 96 h; read-out: pIC50 A2780 Ovarian Cell, With Palmitate (converted). The class given is cell-based. In a few lines:
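Seeded cells were switched next day to lipid-reduced serum, exposed to compound and 25 μM palmitate complexed with fatty-acid-free BSA, and incubated 96 h. Proliferation was then determined by MTT absorbance at 544 nm, with a best-fit curve of signal against concentration.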

For assay [3], the system named is A2780 ovarian cells. In words: A2780 ovarian cell proliferation assay in lipid reduced medium, without palmitate (MTT). It counts as cell-based. The following applies: Homo sapiens, A2780, 96 h; read-out: pIC50 A2780 Ovarian Cell, Without Palmitate (converted).
For assay [4], the system named is LNCaP-Vancouver prostate cells. As to the kind of experiment: In vitro LNCaP Vancouver prostate cell proliferation assay in lipid reduced medium. The class given is cell-based. The conditions noted are these: read-out: pIC50 LNCaP_Vancouver prostate cell (converted). How it is done: LNCaP-Vancouver prostate cells were obtained from the Vancouver Prostate Cancer Centre. Cells were maintained in RPMI-1640, 10% Fetal Calf Serum (FCS, Hyclone), 2 mM glutamine and 50 μg/ml Gentamicin.
For the proliferation experiment 1500 LNCaP-Vancouver cells per well were seeded in a 384-well black with clear bottom plate (costar 3712BC) in 40 μl RPMI-1640, 10% Lipid reduced serum (LRS, Hyclone), 50 μg/ml Gentamicin and 2 mM Glutamine and incubated at 37° C., 5% CO2. The next day 10 μl of test compound/DMSO diluted in medium was added (3E-5M, 1E-5M, 3E-6M, 1E-6M, 3E-7M, 1E-7M, 3E-8M, 1E-8M final concentration). Compounds were tested in duplicate. After 96 h incubation at 37° C., 5% CO2 25 μl ATP-glow mix was added. The plate was incubated for 30 min at 37° C. and luminescence was measured with the Envision.
Analysis: Determination of pIC50 Values
pIC50 values were calculated as follows.
where mLC and mHC are the means of the low control wells and high control wells on the plate, after manual exclusion of outliers. The relation between the % Controlmin values and concentration was fitted to a 4-parameter logistic curve using a non-linear least squares regression method to determine the pIC50 value. Outlying data points were excluded manually to get a correct fit. The pIC50 corresponds to −log 10(IC50), if the IC50 is expressed in molar units (http://www.ncbi.nlm.nih.gov/books/NBK91994). The IC50 parameter was always determined by non-linear regression, but one or more of the other parameters may have been held fixed on a relevant input value, such as 0 for the bottom values.
For dose response curves with FASN inhibitors in LNCaP-Vancouver or PC-3M-Luc-C6 cells the curves bottom out around 30 to 40% of the control value. A standard fit PL2, forcing the lower bound to this level was used.
Representative compounds of the present invention were tested according to the procedure as described in Biological Example 4a and 4b above, with results as listed in Table 9, below.

The target of assay [5] is Fatty Acid Synthase Keto-reductase Domain (FASN KR) (Homo sapiens, UniProt P49327). In words: Fatty Acid Synthase keto-reductase domain (FASN KR) inhibition, NADPH oxidation at 340 nm.
Fatty Acid Synthase Keto-reductase Domain (FASN KR), sequence (P49327 whole entry, the tested form may be a part): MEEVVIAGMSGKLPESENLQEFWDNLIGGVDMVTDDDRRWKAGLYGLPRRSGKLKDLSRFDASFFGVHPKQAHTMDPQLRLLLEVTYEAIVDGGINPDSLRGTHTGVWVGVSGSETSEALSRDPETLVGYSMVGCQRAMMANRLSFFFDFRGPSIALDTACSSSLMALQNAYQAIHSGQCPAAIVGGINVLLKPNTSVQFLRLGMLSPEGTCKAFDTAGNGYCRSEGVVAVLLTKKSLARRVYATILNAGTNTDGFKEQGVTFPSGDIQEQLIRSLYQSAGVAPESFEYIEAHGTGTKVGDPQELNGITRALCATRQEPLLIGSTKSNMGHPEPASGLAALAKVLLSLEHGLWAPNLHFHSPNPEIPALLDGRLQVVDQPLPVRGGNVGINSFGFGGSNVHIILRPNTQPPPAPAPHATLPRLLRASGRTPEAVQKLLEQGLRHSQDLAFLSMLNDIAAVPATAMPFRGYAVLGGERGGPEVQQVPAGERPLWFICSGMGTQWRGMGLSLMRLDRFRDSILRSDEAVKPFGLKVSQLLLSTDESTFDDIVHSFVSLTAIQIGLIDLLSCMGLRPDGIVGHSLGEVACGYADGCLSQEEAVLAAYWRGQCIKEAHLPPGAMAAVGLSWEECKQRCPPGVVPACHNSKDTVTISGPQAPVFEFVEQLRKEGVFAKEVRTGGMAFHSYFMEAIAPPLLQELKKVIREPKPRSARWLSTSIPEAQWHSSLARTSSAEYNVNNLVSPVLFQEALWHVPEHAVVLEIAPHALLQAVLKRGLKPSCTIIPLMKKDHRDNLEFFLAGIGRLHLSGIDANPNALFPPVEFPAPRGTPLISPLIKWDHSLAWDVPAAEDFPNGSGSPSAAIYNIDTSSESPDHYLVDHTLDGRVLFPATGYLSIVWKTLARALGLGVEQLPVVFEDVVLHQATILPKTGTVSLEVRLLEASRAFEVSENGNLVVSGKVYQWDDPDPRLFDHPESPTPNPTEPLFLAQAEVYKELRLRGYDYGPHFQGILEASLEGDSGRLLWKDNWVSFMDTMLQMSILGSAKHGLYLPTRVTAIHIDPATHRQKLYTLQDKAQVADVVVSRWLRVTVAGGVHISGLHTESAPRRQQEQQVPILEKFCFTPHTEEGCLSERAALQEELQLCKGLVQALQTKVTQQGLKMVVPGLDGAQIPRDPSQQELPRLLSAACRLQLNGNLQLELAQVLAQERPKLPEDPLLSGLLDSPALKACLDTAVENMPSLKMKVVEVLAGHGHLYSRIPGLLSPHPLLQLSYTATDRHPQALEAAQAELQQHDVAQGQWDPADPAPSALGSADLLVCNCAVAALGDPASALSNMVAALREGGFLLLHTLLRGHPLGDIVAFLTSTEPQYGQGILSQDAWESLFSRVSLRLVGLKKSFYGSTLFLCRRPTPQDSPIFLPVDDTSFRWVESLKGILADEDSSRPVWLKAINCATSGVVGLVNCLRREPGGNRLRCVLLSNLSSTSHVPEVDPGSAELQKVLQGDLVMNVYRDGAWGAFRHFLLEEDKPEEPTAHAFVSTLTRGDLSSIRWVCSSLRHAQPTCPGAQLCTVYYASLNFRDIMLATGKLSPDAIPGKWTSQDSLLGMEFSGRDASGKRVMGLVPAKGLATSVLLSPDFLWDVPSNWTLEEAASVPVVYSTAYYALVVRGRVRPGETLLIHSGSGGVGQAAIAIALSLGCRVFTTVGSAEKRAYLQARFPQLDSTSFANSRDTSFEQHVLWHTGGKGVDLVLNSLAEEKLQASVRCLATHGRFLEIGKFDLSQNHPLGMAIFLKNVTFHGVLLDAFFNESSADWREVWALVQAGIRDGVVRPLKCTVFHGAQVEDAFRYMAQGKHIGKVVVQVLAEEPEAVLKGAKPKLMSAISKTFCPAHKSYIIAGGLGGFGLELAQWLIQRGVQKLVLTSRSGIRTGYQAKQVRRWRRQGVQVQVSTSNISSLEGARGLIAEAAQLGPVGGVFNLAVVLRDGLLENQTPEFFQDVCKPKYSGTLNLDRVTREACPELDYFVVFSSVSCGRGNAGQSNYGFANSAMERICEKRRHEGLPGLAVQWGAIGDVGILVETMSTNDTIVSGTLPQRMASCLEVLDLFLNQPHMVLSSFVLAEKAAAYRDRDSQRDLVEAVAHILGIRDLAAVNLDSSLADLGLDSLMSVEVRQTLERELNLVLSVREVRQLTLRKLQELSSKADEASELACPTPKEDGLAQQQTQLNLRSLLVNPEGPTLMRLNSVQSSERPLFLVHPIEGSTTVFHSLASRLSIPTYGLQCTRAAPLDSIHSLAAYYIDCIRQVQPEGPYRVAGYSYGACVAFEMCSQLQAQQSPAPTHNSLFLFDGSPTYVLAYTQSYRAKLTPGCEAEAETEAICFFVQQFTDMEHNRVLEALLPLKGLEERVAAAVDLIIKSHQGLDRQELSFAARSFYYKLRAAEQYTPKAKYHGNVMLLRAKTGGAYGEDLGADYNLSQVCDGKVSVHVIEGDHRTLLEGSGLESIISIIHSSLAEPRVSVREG
Procedure: After 20 minutes incubation at room temperature the plate was measured again (T2).
The decrease in absorbance was calculated as (Absorbance before incubation T1)−(Absorbance following incubation T2).
A plot of Controlmin versus test compound concentration was fitted to a 4-parameter logistic curve using a non-linear least squares regression method.

T1 sequence (P49327 whole entry): as the sequence (P49327 whole entry, the tested form may be a part) above

Take `O=C(C1CC1)N1CC[C@@H](CN2C(=O)C3(CC3)N=C2c2ccc(-c3ccc4cnc(Cl)cc4c3)cc2)C1` [compound 466, 5-[4-(3-Chloroisoquinolin-6-yl)phenyl]-6-{[(3R)-1-(cyclopropylcarbonyl)pyrrolidin-3-yl]methyl}-4,6-diazaspiro[2.4]hept-4-en-7-one]: the inhibition at 10 µM in assay [1] came out at 87%. Moreover, the IC50 was 479 nM in assay [1]; more than 10000 nM in assay [2]; approximately 2690 nM in assay [3]; 3800 nM in assay [4]; 1350 nM in assay [5].
Regarding `CCC(=O)N1CC(CN2C(=O)C3(CC3)N=C2c2ccc(-c3ccc4c(cnn4C)c3)cc2C)C1` [compound 471, 5-[2-Methyl-4-(1-methyl-1H-indazol-5-yl)phenyl]-6-[(1-propanoylazetidin-3-yl)methyl]-4,6-diazaspiro[2.4]hept-4-en-7-one], the inhibition at 10 µM in assay [1] was 99%. Also, the IC50 is 182 nM in assay [1]; more than 10000 nM in assay [2]; 417 nM in assay [3]; 1290 nM in assay [4]; 331 nM in assay [5].
As for `Cc1cc(-c2ccc3c(cnn3C)c2)ccc1C1=NC2(CC2)C(=O)N1CC1CN(C(=O)C(C)C)C1` [compound 473, 5-[2-Methyl-4-(1-methyl-1H-indazol-5-yl)phenyl]-6-{[1-(2-methylpropanoyl)azetidin-3-yl]methyl}-4,6-diazaspiro[2.4]hept-4-en-7-one], the inhibition at 10 µM in assay [1] was determined as 95%. For the same compound, the IC50 in assay [1] was 269 nM; in assay [2], more than 10000 nM; in assay [3], approximately 275 nM; in assay [4], 2190 nM; in assay [5], 525 nM.
On to `Cc1cc(C2=NC3(CC3)C(=O)N2C[C@@H]2CCN(C(=O)C3CC3)C2)ccc1-c1ccc2oc(C#N)cc2c1` [compound 476, 5-[4-(6-{[(3R)-1-(Cyclopropylcarbonyl)pyrrolidin-3-yl]methyl}-7-oxo-4,6-diazaspiro[2.4]hept-4-en-5-yl)-2-methylphenyl]-1-benzofuran-2-carbonitrile], for which the inhibition at 10 µM in assay [1] is 90%. Moreover, the IC50 in assay [1] is 263 nM; in assay [2] it was more than 10000 nM; in assay [3] it was approximately 2040 nM; in assay [4] it was 3720 nM; in assay [5] it was 617 nM.
As to `Cc1cc(-c2ccc3c(cnn3C)c2)ccc1C1=NC2(CC2)C(=O)N1CC1CN(C(=O)C2(CO)CC2)C1` [compound 480, 6-[(1-{[1-(Hydroxymethyl)cyclopropyl]carbonyl}azetidin-3-yl)methyl]-5-[2-methyl-4-(1-methyl-1H-indazol-5-yl)phenyl]-4,6-diazaspiro[2.4]hept-4-en-7-one], in assay [1], the inhibition at 10 µM was 97%. For the same compound, the IC50 is 155 nM in assay [1]; more than 10000 nM in assay [2]; approximately 257 nM in assay [3]; 1150 nM in assay [4]; 525 nM in assay [5].
In the case of `Cn1ncc2cc(-c3ccc(C4=NC5(CC5)C(=O)N4C[C@@H]4CCN(C(=O)C5COC5)C4)cc3)ccc21` [compound 490, 5-[4-(1-Methyl-1H-indazol-5-yl)phenyl]-6-{[(3R)-1-(oxetan-3-ylcarbonyl)pyrrolidin-3-yl]methyl}-4,6-diazaspiro[2.4]hept-4-en-7-one], in assay [1], the inhibition at 10 µM worked out at 81%. The IC50 is 331 nM in assay [1]; more than 10000 nM in assay [2]; 93.3 nM in assay [3]; 1050 nM in assay [4]; 363 nM in assay [5].
Regarding `O=C1CCc2cc(-c3ccc(C4=NC5(CC5)C(=O)N4C[C@@H]4CCN(C(=O)C5CC5)C4)cc3)ccc2N1` [compound 512, 6-[4-(6-{[(3R)-1-(Cyclopropylcarbonyl)pyrrolidin-3-yl]methyl}-7-oxo-4,6-diazaspiro[2.4]hept-4-en-5-yl)phenyl]-3,4-dihydroquinolin-2(1H)-one], the inhibition at 10 µM in assay [1] was found to be 87%. Further, the IC50 in assay [1] was 676 nM; in assay [2] it was more than 10000 nM; in assay [3] it was 1000 nM; in assay [4] it was 3980 nM; in assay [5], 3090 nM.
On to `Cn1nc(CO)c2cc(-c3ccc(C4=NC5(CC5)C(=O)N4CC4CN(C(=O)C5CC5)C4)cc3)ccc21` [compound 530, 6-{[1-(Cyclopropylcarbonyl)azetidin-3-yl]methyl}-5-{4-[3-(hydroxymethyl)-1-methyl-1H-indazol-5-yl]phenyl}-4,6-diazaspiro[2.4]hept-4-en-7-one], for which the inhibition at 10 µM in assay [1] came to 97%. In addition, the IC50 in assay [1] was 263 nM; in assay [2], more than 10000 nM; in assay [3], 776 nM; in assay [4], 5130 nM; in assay [5], 2950 nM.
For the compound `O=C(C1CC1)N1CC(CN2C(=O)C3(CC3)N=C2c2ccc(-c3ccc4cncnc4c3)cc2)C1` [compound 543, 6-{[1-(Cyclopropylcarbonyl)azetidin-3-yl]methyl}-5-(4-quinazolin-7-ylphenyl)-4,6-diazaspiro[2.4]hept-4-en-7-one], in assay [1], the inhibition at 10 µM worked out at 97%. The IC50 is 145 nM in assay [1]; more than 10000 nM in assay [2]; 141 nM in assay [3]; 2000 nM in assay [4]; 479 nM in assay [5].
Turning to `Cn1ccc(-c2ccc(-c3ccc(C4=NC5(CC5)C(=O)N4CC4CN(C(=O)C5CC5)C4)c(F)c3)cc2)n1` [compound 547, 6-{[1-(Cyclopropylcarbonyl)azetidin-3-yl]methyl}-5-[3-fluoro-4′-(1-methyl-1H-pyrazol-3-yl)biphenyl-4-yl]-4,6-diazaspiro[2.4]hept-4-en-7-one], the inhibition at 10 µM in assay [1] worked out at 98%. The IC50 in assay [1] is 178 nM; in assay [2], 5890 nM; in assay [3] it was approximately 174 nM; in assay [4], 1000 nM; in assay [5], 676 nM.
As to `Cc1cc2cc(-c3ccc(C4=NC5(CC5)C(=O)N4CC4CN(C(=O)C5CC5)C4)c(F)c3)ccc2s1` [compound 548, 6-{[1-(Cyclopropylcarbonyl)azetidin-3-yl]methyl}-5-[2-fluoro-4-(2-methyl-1-benzothiophen-5-yl)phenyl]-4,6-diazaspiro[2.4]hept-4-en-7-one], the inhibition at 10 µM in assay [1] was 88%. The IC50 in assay [1] is 162 nM; in assay [2], 6170 nM; in assay [3] it was approximately 295 nM; in assay [4] it was 1100 nM; in assay [5], 166 nM.
In the case of `COc1nn(C)c2ccc(-c3ccc(C4=NC5(CC5)C(=O)N4C[C@@H]4CCN(C(=O)C5CC5)C4)cc3)cc12` [compound 557, 6-{[(3R)-1-(Cyclopropylcarbonyl)pyrrolidin-3-yl]methyl}-5-[4-(3-methoxy-1-methyl-1H-indazol-5-yl)phenyl]-4,6-diazaspiro[2.4]hept-4-en-7-one], the inhibition at 10 µM in assay [1] was found to be 97%. Further, the IC50 in assay [1] was 372 nM; in assay [2], 4790 nM; in assay [3], 200 nM; in assay [4], 1380 nM; in assay [5], 427 nM.
For the compound `Cc1cc(-c2ccc(C#N)cc2F)ccc1C1=NC2(CC2)C(=O)N1CC1CN(C(=O)C2(C)CC2)C1` [compound 580], in assay [1], the inhibition at 10 µM worked out at 108%. In addition, the IC50 in assay [1] was 123 nM; in assay [2], more than 10000 nM; in assay [3], 56.2 nM; in assay [4] it was 759 nM; in assay [5], 603 nM.
Regarding `Cc1cc(-c2cccc(NC(=O)C3CC3)c2)ccc1C1=NC2(CC2)C(=O)N1C[C@@H]1CCN(C(=O)C2CC2)C1` [compound 614, N-[4′-(6-{[(3R)-1-(Cyclopropylcarbonyl)pyrrolidin-3-yl]methyl}-7-oxo-4,6-diazaspiro[2.4]hept-4-en-5-yl)-3′-methylbiphenyl-3-yl]cyclopropanecarboxamide], the inhibition at 10 µM in assay [1] stood at 102%. Further, the IC50 in assay [1] was 151 nM; in assay [2] it was more than 10000 nM; in assay [3], 170 nM; in assay [4], 1350 nM; in assay [5], 309 nM.
